Where no end group is shown, it is not given here. [ ]: non-standard residue; d: D form. dAllylGly = C=CC[C@@H](N)C(=O)O; AllylGly = C=CC[C@H](N)C(=O)O
Key:
CaCo2 monolayers [1] = experiment: Trans Epithelial Electric Resistance (TEER) across CaCo2 monolayers; assay type: cell-based; parameters: key to Reduced TEER: + indicates an enhancement of the permeability of the tight junctions were observed; − indicates no enhancement of permeability was observed; conditions: CaCo2 monolayers
From the text: (§1) Agonists of tight junctions can be identified by their ability to enhance the flux of compounds (e.g. ions, Lucifer Yellow) through a cell monolayer that comprises tight junctions; or by their ability to reduce TEER across a cell monolayer that comprises tight junctions. Treatment of CaCo2 monolayers with peptide FCIGRL (SEQ ID NO: 1) led to a 51-fold enhancement of Lucifer Yellow permeability through CaCo2 monolayers compared to vehicle alone.
Treatment of CaCo2 monolayers with peptide FCIGRL led to a 16-fold decrease in TEER across CaCo2 monolayers compared to vehicle alone.
(§2) Tight junction agonists can be identified and tested using the following method:
(§3) Determination of TEER and Lucifer Yellow Flux
(§4) Prepare Modified Hank's Balanced Salt Solution (MHBSS) by obtaining 1 L bottle of HBSS removing 10 ml of HBSS and replacing it with 10 ml HEPES buffer pH 7.0. Adjust pH to 7.4±0.1 using concentrated NaOH (10N).
(§5) Remove CaCo-2 cells from incubator, grown on 12-well, 3.0 μM, polycarbonate Transwell® filters (Corning) and record passage#, date cells seeded and age in days.
(§6) Aspirate cell culture medium from both the apical (AP) and basolateral (BL) compartments, replacing with 0.5 ml and 1.5 ml of MHBSS, respectively. Incubate cells at 37° C. for 30 minutes.
Using the MilliCell®-ERS instrument (Millipore), measure and record the transepithelial electrical resistance (TEER) across each filter and record.
(§7) Aspirate solution from the apical compartment of each filter (n=3 per condition) and replace with 0.5 ml of control and test solutions containing Lucifer Yellow and test compound if appropriate.
(§8) Place all plates into incubator set at 37° C. (±0.2), 50 RPM (±5) for a total of 180 minutes.
At t=30, 60, 120 and 180 minutes, measure and record the transepithelial electrical resistance (TEER) across each filter using the MilliCell-ERS instrument.
(§9) Cells: CaCo-2 cells passage 40-60 grown on Transwell® plates for 21-28 days
(§10) Culture Medium: DMEM supplemented with 10% fetal bovine serum, 1% NEAA, 1% Penn/Strep
(§11) Buffers: Hank's Balanced Salt Solution (HBSS) without calcium and magnesium
(§12) Flasks: 100×20 mm Tissue culture dish Falcon.
(§13) Plates: 12 well polycarbonate Transwell® filters; 0.3 uM pore size

CaCo2 monolayers [2] = experiment: Lucifer Yellow (LY) permeability assay through CaCo2 monolayers; assay type: cell-based; parameters: key to Enhanced LY permeability: + indicates an enhancement of the permeability of the tight junctions were observed; − indicates no enhancement of permeability was observed; conditions: CaCo2 monolayers, Lucifer Yellow flux
From the text: as §1, §2, §3, §4, §5, §6, §7, §8
At t=60, 120 and 180 minutes remove […] from each basolateral compartment and place it in a 96-well plate for Lucifer Yellow analysis, replace with 100 μl of MHBSS.
Make a Lucifer Yellow standard curve with the following dilutions (7500 μM, 3750 μM, 750 μM, 375 μM, 37.5 μM, 7.5 μM, 3.75 μM, 0.75 μM) and pipette 100 μL of each into a 96-well plate except for the first three standards mentioned above which require a 1:10 dilutions prior to transferring to the 96-well plate.
Harvest the remaining start solutions and what is left in each apical compartment into 1.5 ml vials. Freeze at −20° C. for future analysis.
Analyze each 96-well plate in a Tecan Spectra Fluor Plus using Magellan at 485 and 535 nm.
as §9, §10, §11, §12, §13

| Substance | Reduced TEER (CaCo2 monolayers [1]) | Enhanced LY permeability (CaCo2 monolayers [2]) |
| --- | --- | --- |
| 36 (F[AllylGly]KGRL-NH2; N-terminus assumed; SMILES C=CC[C@H](NC(=O)[C@@H](N)Cc1ccccc1)C(=O)N[C@@H](CCCCN)C(=O)NCC(=O)N[C@@H](CCCNC(=N)N)C(=O)N[C@@H](CC(C)C)C(N)=O) [compound 36] | + | + |
| 15 (W[AllylGly]IGRL-NH2; N-terminus assumed; SMILES C=CC[C@H](NC(=O)[C@@H](N)Cc1c[nH]c2ccccc12)C(=O)N[C@H](C(=O)NCC(=O)N[C@@H](CCCNC(=N)N)C(=O)N[C@@H](CC(C)C)C(N)=O)[C@@H](C)CC) [compound 15] | − | + |
| 59 (F[AllylGly]IGGL-NH2; N-terminus assumed; SMILES C=CC[C@H](NC(=O)[C@@H](N)Cc1ccccc1)C(=O)N[C@H](C(=O)NCC(=O)NCC(=O)N[C@@H](CC(C)C)C(N)=O)[C@@H](C)CC) [compound 59] | + | + |
| 51 (F[AllylGly]IKRL-NH2; N-terminus assumed; SMILES C=CC[C@H](NC(=O)[C@@H](N)Cc1ccccc1)C(=O)N[C@H](C(=O)N[C@@H](CCCCN)C(=O)N[C@@H](CCCNC(=N)N)C(=O)N[C@@H](CC(C)C)C(N)=O)[C@@H](C)CC) [compound 51] | − | − |
| 26 (F[AllylGly]SGRL-NH2; N-terminus assumed; SMILES C=CC[C@H](NC(=O)[C@@H](N)Cc1ccccc1)C(=O)N[C@@H](CO)C(=O)NCC(=O)N[C@@H](CCCNC(=N)N)C(=O)N[C@@H](CC(C)C)C(N)=O) [compound 26] | + | + |
| 88 (F[AllylGly]IGRW-NH2; N-terminus assumed; SMILES C=CC[C@H](NC(=O)[C@@H](N)Cc1ccccc1)C(=O)N[C@H](C(=O)NCC(=O)N[C@@H](CCCNC(=N)N)C(=O)N[C@@H](Cc1c[nH]c2ccccc12)C(N)=O)[C@@H](C)CC) [compound 88] | + | + |
| 19 (P[AllylGly]IGRL-NH2; N-terminus assumed; SMILES C=CC[C@H](NC(=O)[C@@H]1CCCN1)C(=O)N[C@H](C(=O)NCC(=O)N[C@@H](CCCNC(=N)N)C(=O)N[C@@H](CC(C)C)C(N)=O)[C@@H](C)CC) [compound 19] | − | − |
| 85 (F[AllylGly]IGRM-NH2; N-terminus assumed; SMILES C=CC[C@H](NC(=O)[C@@H](N)Cc1ccccc1)C(=O)N[C@H](C(=O)NCC(=O)N[C@@H](CCCNC(=N)N)C(=O)N[C@@H](CCSC)C(N)=O)[C@@H](C)CC) [compound 85] | + | + |
| 28 (F[AllylGly]VGRL-NH2; N-terminus assumed; SMILES C=CC[C@H](NC(=O)[C@@H](N)Cc1ccccc1)C(=O)N[C@H](C(=O)NCC(=O)N[C@@H](CCCNC(=N)N)C(=O)N[C@@H](CC(C)C)C(N)=O)C(C)C) [compound 28] | − | − |
| 74 (F[AllylGly]IGRD-NH2; N-terminus assumed; SMILES C=CC[C@H](NC(=O)[C@@H](N)Cc1ccccc1)C(=O)N[C@H](C(=O)NCC(=O)N[C@@H](CCCNC(=N)N)C(=O)N[C@@H](CC(=O)O)C(N)=O)[C@@H](C)CC) [compound 74] | + | + |
| 29 (F[AllylGly]GGRL-NH2; N-terminus assumed; SMILES C=CC[C@H](NC(=O)[C@@H](N)Cc1ccccc1)C(=O)NCC(=O)NCC(=O)N[C@@H](CCCNC(=N)N)C(=O)N[C@@H](CC(C)C)C(N)=O) [compound 29] | + | + |
| 30 (F[AllylGly]AGRL-NH2; N-terminus assumed; SMILES C=CC[C@H](NC(=O)[C@@H](N)Cc1ccccc1)C(=O)N[C@@H](C)C(=O)NCC(=O)N[C@@H](CCCNC(=N)N)C(=O)N[C@@H](CC(C)C)C(N)=O) [compound 30] | + | + |
| 53 (F[AllylGly]ISRL-NH2; N-terminus assumed; SMILES C=CC[C@H](NC(=O)[C@@H](N)Cc1ccccc1)C(=O)N[C@H](C(=O)N[C@@H](CO)C(=O)N[C@@H](CCCNC(=N)N)C(=O)N[C@@H](CC(C)C)C(N)=O)[C@@H](C)CC) [compound 53] | + | + |
| 55 (F[AllylGly]IGHL-NH2; N-terminus assumed; SMILES C=CC[C@H](NC(=O)[C@@H](N)Cc1ccccc1)C(=O)N[C@H](C(=O)NCC(=O)N[C@@H](Cc1c[nH]cn1)C(=O)N[C@@H](CC(C)C)C(N)=O)[C@@H](C)CC) [compound 55] | − | − |
| 62 (F[AllylGly]IGKL-NH2; N-terminus assumed; SMILES C=CC[C@H](NC(=O)[C@@H](N)Cc1ccccc1)C(=O)N[C@H](C(=O)NCC(=O)N[C@@H](CCCCN)C(=O)N[C@@H](CC(C)C)C(N)=O)[C@@H](C)CC) [compound 62] | + | + |
| 16 (K[AllylGly]IGRL-NH2; N-terminus assumed; SMILES C=CC[C@H](NC(=O)[C@@H](N)CCCCN)C(=O)N[C@H](C(=O)NCC(=O)N[C@@H](CCCNC(=N)N)C(=O)N[C@@H](CC(C)C)C(N)=O)[C@@H](C)CC) [compound 16] | − | − |
| 13 (G[AllylGly]IGRL; not fully specified; printed as Gly−AllylGly−Ile−Gly−Arg−Leu−NR2) [compound 13] | − | − |
| 54 (F[AllylGly]IVRL-NH2; N-terminus assumed; SMILES C=CC[C@H](NC(=O)[C@@H](N)Cc1ccccc1)C(=O)N[C@H](C(=O)N[C@H](C(=O)N[C@@H](CCCNC(=N)N)C(=O)N[C@@H](CC(C)C)C(N)=O)C(C)C)[C@@H](C)CC) [compound 54] | + | − |
| 34 (F[AllylGly]QGRL-NH2; N-terminus assumed; SMILES C=CC[C@H](NC(=O)[C@@H](N)Cc1ccccc1)C(=O)N[C@@H](CCC(N)=O)C(=O)NCC(=O)N[C@@H](CCCNC(=N)N)C(=O)N[C@@H](CC(C)C)C(N)=O) [compound 34] | + | + |
| 39 (F[AllylGly]ITRL-NH2; N-terminus assumed; SMILES C=CC[C@H](NC(=O)[C@@H](N)Cc1ccccc1)C(=O)N[C@H](C(=O)N[C@H](C(=O)N[C@@H](CCCNC(=N)N)C(=O)N[C@@H](CC(C)C)C(N)=O)[C@@H](C)O)[C@@H](C)CC) [compound 39] | + | + |
| 2 (F[AllylGly]IGRL) [compound 2] | + | + |
| 42 (F[AllylGly]IARL-NH2; N-terminus assumed; SMILES C=CC[C@H](NC(=O)[C@@H](N)Cc1ccccc1)C(=O)N[C@H](C(=O)N[C@@H](C)C(=O)N[C@@H](CCCNC(=N)N)C(=O)N[C@@H](CC(C)C)C(N)=O)[C@@H](C)CC) [compound 42] | + | + |
| 4 (F[dAllylGly]IGR-NH2; N-terminus assumed; SMILES C=CC[C@@H](NC(=O)[C@@H](N)Cc1ccccc1)C(=O)N[C@H](C(=O)NCC(=O)N[C@@H](CCCNC(=N)N)C(N)=O)[C@@H](C)CC) [compound 4] | − | − |
| 75 (F[AllylGly]IGRR-NH2; N-terminus assumed; SMILES C=CC[C@H](NC(=O)[C@@H](N)Cc1ccccc1)C(=O)N[C@H](C(=O)NCC(=O)N[C@@H](CCCNC(=N)N)C(=O)N[C@@H](CCCNC(=N)N)C(N)=O)[C@@H](C)CC) [compound 75] | − | + |
| 57 (F[AllylGly]IGEL-NH2; N-terminus assumed; SMILES C=CC[C@H](NC(=O)[C@@H](N)Cc1ccccc1)C(=O)N[C@H](C(=O)NCC(=O)N[C@@H](CCC(=O)O)C(=O)N[C@@H](CC(C)C)C(N)=O)[C@@H](C)CC) [compound 57] | − | − |

Source: US8557763B2, “Synthetic peptides that enhance tight junction permeability” (Alba Therapeutics Corporation, priority 2007, dated 2013)
